From US20260092061A1, “COMPOUNDS FOR TARGETED PROTEIN DEGRADATION” (Amphista Therapeutics Limited, priority 2022, published 2026)
Where two headings read alike, the source gives them in different places.

Columns and labels:
BRD7 = target: T1, BRD7 (Homo sapiens, UniProt Q9NPI1); assay: BRD7 degradation, HiBiT-BRD7 KI HEK293 (LgBiT) cells, NanoGlo Lytic Endpoint assay (Assay Protocol 1); assay type: cell-based; conditions: Table 5, assay protocol 1; for Dmax: HEK293
T1 construct: HiBiT-BRD7 KI HEK293 (LgBiT) Cells (Promega CS3023410); host or cells: HEK293 (LgBiT), HiBiT knock-in at the BRD7 locus
T1 sequence (Q9NPI1 1-651): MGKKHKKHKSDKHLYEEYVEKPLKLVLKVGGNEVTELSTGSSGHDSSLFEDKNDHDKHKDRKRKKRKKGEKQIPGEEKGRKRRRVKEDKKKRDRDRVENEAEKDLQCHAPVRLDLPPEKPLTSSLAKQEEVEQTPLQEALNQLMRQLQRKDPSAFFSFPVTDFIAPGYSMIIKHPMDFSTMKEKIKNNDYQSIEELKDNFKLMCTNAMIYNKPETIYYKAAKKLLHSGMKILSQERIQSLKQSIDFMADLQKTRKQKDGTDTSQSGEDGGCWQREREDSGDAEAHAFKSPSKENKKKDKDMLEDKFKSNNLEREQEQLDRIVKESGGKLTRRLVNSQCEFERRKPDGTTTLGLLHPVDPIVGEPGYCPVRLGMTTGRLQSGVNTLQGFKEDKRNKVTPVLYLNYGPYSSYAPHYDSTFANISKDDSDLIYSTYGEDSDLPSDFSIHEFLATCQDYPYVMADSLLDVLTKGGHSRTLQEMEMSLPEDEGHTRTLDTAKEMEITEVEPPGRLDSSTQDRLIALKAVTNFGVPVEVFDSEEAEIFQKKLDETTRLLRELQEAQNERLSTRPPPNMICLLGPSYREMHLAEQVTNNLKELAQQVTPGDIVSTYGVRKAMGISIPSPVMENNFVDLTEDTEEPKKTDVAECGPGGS
Description: HiBiT-BRD9 KI HEK293 (LgBiT) Cells (Promega CS3023412) were seeded at 8000 cells per well (38 μL) in sterile white bottom 384 well plates (Invitrogen 164610 or Greiner 781080) and incubated overnight at 37° C. with 5% CO2. The next day, compounds were prepared at 1000× final concentration in DMSO and diluted 1:100 in media (DMEM PAN Biotech P04-03550+10% FBS ATCC 302025). […] The lytic buffer was equilibrated to room temperature for 10-15 min before lytic reagent was prepared by adding substrate (1:50) and LgBit protein (1:100) in lytic buffer. 40 μL lytic reagent mix was added to each well of the cel plate and plates were centrifuged briefly at ˜50g. Plates were incubated with shaking (350 RPM) for 12-24 min before reading using the LUM plus module of a BMG Pherastar FSX. Data was analysed using Dotmatics software and % BRD9 remaining was calculated by normalisation to average data from high and low control wells (DMSO treated cels and no cells respectively).
BRD7 degradation was determined in line with the procedure as outlined above for BRD9, with the exception that HiBiT-BRD7 KI HEK293 (LgBiT) Cells (Promega CS3023410) were seeded at 8000 cells per well (CPW) (36 uL) in sterile white bottom 384 well plates (Invitrogen 164610 or Greiner 781080) and incubated overnight at 37° C. with 5% CO2.

BRD9 = target: T2, BRD9 (Homo sapiens, UniProt Q9H8M2); assay: Degradation of BRD9 (IF), immunofluorescence in MV4-11 cells, 24 hours (Assay Protocol 2); assay type: cell-based; parameters: A suspension of MV4-11 cells (ATCC CRL-9591) was prepared; host or cells: MV4-11
T2 sequence (Q9H8M2 1-597): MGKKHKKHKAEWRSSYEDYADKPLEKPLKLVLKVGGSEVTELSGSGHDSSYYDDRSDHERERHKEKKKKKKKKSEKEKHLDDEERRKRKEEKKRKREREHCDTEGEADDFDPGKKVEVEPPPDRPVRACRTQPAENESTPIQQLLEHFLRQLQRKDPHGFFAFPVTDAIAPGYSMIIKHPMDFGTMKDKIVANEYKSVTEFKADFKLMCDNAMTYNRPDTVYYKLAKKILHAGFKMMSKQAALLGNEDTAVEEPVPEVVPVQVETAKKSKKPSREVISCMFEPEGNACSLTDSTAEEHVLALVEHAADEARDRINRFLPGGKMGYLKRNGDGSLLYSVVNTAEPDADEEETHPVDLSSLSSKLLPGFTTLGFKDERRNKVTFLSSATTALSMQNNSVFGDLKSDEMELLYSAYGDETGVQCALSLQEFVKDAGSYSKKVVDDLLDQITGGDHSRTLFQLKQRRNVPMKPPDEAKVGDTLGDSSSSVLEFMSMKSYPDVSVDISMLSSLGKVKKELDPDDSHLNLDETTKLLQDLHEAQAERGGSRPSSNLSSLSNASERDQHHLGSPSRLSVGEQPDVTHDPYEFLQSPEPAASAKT
Method in brief: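 MV4-11 cells treated with compound 24 h at 37° C., then fixed, permeabilised and immunostained for BRD9 (anti-BRD9 E4Q3F, Alexa 647 secondary, Hoechst counterstain). High-content imaging quantified nuclear BRD9 signal; % BRD9 remaining normalised to DMSO and 100 nM CFT-8634 controls.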

[1] = MV4-11, Table 4, BRD9 degradation, determined according to Assay Protocol 2, read-out: Dmax^2
[2] = Table 4, BRD9 degradation, determined according to Assay Protocol 2, read-out: DC50^2

Row | Dmax (BRD7) [%] | DC50 (BRD7) [µM] | Dmax (BRD9; [1]) [%] | DC50 (BRD9; [2]) [µM] | Dmax (BRD9; MV4-11, Table 5, cells marked *: measured in accordance with Assay Protocol 2, read-out: BRD9 Dmax (%)) [%] | DC50 (BRD9; Table 5, cells marked *: measured in accordance with Assay Protocol 2, read-out: BRD9 DC50) [µM] | SMILES
1 | < 25 | > 1 | 50 to 70 | > 0.2 |  |  | COc1cc(-c2cn(C)c(=O)c(C)c2C)cc(OC)c1CN(C)C1CCN(C(=O)/C(C#N)=C/C(C)(C)C)CC1 [BRD9d, (E/Z)-2-(4-((2,6-dimethoxy-4-(1,4,5-trimethyl-6-oxo-1,6-dihydropyridin-3-yl)benzyl)(methyl)amino)piperidine-1-carbonyl)-4,4-dimethylpent-2-enenitrile]
2 | < 25 | > 1 | 30 to 50 |  | 25 to 40 | > 1 | COc1cc(-c2cn(C)c(=O)c(C)c2C)cc(OC)c1CN1CCN(C(=O)/C(C#N)=C/C(C)(C)C)C2(CC2)C1 [BRD9e, (E/Z)-2-(7-(2,6-dimethoxy-4-(1,4,5-trimethyl-6-oxo-1,6-dihydropyridin-3-yl)benzyl)-4,7-diazaspiro[2,5]octane-4-carbonyl)-4,4-dimethylpent-2-enenitrile]
3 | 25 to 40 | > 1 | > 70 | < 0.025 |  |  | COc1cc(-c2cn(C)c(=O)c(C)c2C)cc(OC)c1CN1CCN(C(=O)/C(C#N)=C/c2cccc(Br)n2)CC1 [BRD9h, (E/Z)-3-(6-bromopyridin-2-yl)-2-(4-(2,6-dimethoxy-4-(1,4,5-trimethyl-6-oxo-1,6-dihydropyridin-3-yl)benzyl)piperazine-1-carbonyl)acrylonitrile]
